From US20250161312A1, “A METHOD FOR THE TREATMENT OF CHEMOTHERAPEUTIC DRUG-INDUCED NEPHROTOXICITY” (INSTITUT NATIONAL DE LA SANTÉ ET DE LA RECHERCHE MÉDICALE, priority 2022, published 2025)

Columns and labels:
[1] = tested on: RPTEC/hTERT cells; test: Cell viability assay (CellTiter-Glo); type: cell-based, human; details: cisplatin 50 μM, KW-6002 0.5-12.8 μM, 48 hours
Method: (§1) Cells were cultured in DMEM/F12 medium (Dulbecco's modified Eagle's medium and Ham's F12 medium, Thermo Fisher) supplemented with 1% penicillin/streptomycin, 5 pmol/L triiodo-L-thyronine, 10 ng/ml recombinant human epidermal growth factor, 3.5 μg/mL ascorbic acid, 5.0 μg/mL human transferrin, 5.0 μg/mL insulin, 25 ng/mL prostaglandin E1, 25 ng/ml hydrocortisone, 8.65 ng/mL sodium selenite, 0.1 mg/mL G418 and 1.2 g/L sodium bicarbonate (Sigma). Lewis lung carcinoma mouse LLC1 cells were cultured in DMEM glutamax (Thermo Fisher) containing 10% fetal calf serum and 1% penicillin/streptomycin. Cells were cultured at 37° C. in a humidified atmosphere of 5% CO2.
Viability was assessed using the CellTiter-Glo® Luminescent Cell Viability Assay (Promega) according to manufacturer's recommendations.

[2] = tested on: RPTEC/hTERT cells; test: Caspase 3/7 activity in RPTEC cells; type: cell-based, human; details: cisplatin 50 μM, 48 hours
Method: as §1
Apoptosis was assessed in RPTEC/hTERT and LLC1 cell lysates using the caspase-Glo 3/7 assay (Promega) according to manufacturer's recommendations.

[3] = tested on: RPTEC/hTERT cells; test: Red Oil staining of RPTEC/hTERT cells; type: cell-based, human; details: cisplatin 50 μM, 25 μM KW-6002, 48 hours
Method: (§2) FIG. 6. KW6002 alleviates the cisplatin-induced nephrotoxicity associated with apoptosis, lipid metabolism, and oxidative stress. (A) Tail moment assessed by comet assay; 50 cells/condition were analyzed. (B and C) KW6002 attenuates cisplatin-induced renal lipid accumulation, assessed by Red Oil staining. […] Results are the mean±SEM (n=6-9 mice/group). (F-H) KW6002 attenuated cisplatin-induced oxidative stress in RPTEC/hTERT1 cells. (F and G) Gene expression of Nrf2 (F) and HO1 (G). […] Results are the mean±SEM (n=3 independent experiments).
(§3) 10 μm frozen kidney mouse sections were fixed with ethanol (60%) then incubated for 15 min with Oil Red O Solution (Fisher Biotech) dissolved in isopropanol. After several washes with ddH2O, samples were incubated 3 min with hematoxylin. Lipid droplets are stained in red whereas nuclei appeared blue. […] RPTEC/hTERT cells were fixed with ethanol (60%) then incubated for 15 min with Oil Red O Solution. The cells were washed three times with ddH2O and incubated 3 min with hematoxylin. Coverslips were rinsed with H2O before mounting on microscope slides using glycerol gelatin aqueous slide mounting medium (Sigma). Quantifications were performed blindly using ImageJ software. […] The resulting red color images were quantified using a custom threshold (0.173 for RPTEC/hTERT cells and 0.140 for kidney stainings).

[4] = tested on: kidney mouse sections; test: Red Oil staining of kidney mouse sections; type: in vivo; details: Red Oil staining, kidney samples
Method: as §2, §3

[5] = tested on: RPTEC/hTERT cells; test: Cell concentrations of platinum; type: cell-based, human; details: cisplatin 50 μM, KW-6002 25 μM, 48 hours
Method: Tissues (35 mg) and cell pellets were first mineralized with hydrochloric acid (30% Suprapur, Merck) or nitric acid (69.5%, Carlo Erba), respectively. Analysis of tissue samples was performed by Graphite Furnace Atomic Absorption Spectrometry (GF-AAS) using an Aanalyst 800 (Perkin Elmer)., while cell samples analysis was performed by Inductively Coupled Plasma Mass Spectrometry (ICP-MS) using an ICAP-Qc (Thermo Scientific). Platinum concentration was finally normalized to the accurately measured kidney mass, or to the number of cells previously assessed.

[6] = tested on: H1975 cells; test: γH2AX nuclear foci in H1975 cells; type: cell-based; details: 50 μM cisplatin, 10 nM KW6002, 6 hours, FIG. 7F
Method: FIG. 7. […] Caspase 3/-7 activity (n=3 independent experiments) (A) and the number of γH2AX nuclear foci (n=36-63 nuclei/group) (B) were determined. […] Results are expressed as the mean±SEM (n=3 independent experiments). (E) Tail moment was assessed by comet assay. A total of 50 cells per condition were analyzed. *** P<0.001; 1-way ANOVA followed by Tukey's post hoc test. […] (I) KW6002 increased yH2AX expression in tumors from mice of the LLC1 syngeneic model. Quantification of nuclear yH2AX expression.

[7] = tested on: H1975 cells; test: Cell efflux (flow cytometry) in H1975 cells; type: cell-based; details: cancer cells in response to cisplatin, data not shown
Method: The basic cell efflux function was assessed using an EFLUXX-ID Green Multidrug Resistance Assay Kit (ENZO Life Sciences). Briefly, 2.5×10^5 cells/condition were collected, washed with PBS, and incubated with the EFLUXX-ID Green Detection Reagent for 30 minutes at 37° C., and then efflux was measured immediately by flow cytometry (CytoFLEX LX, Beckman Coulter). All experiments were performed in triplicate, with the measurement of 10,000 individual cells. Data were analyzed using Kaluza Analysis Software (Beckman Coulter).

Question: What does the source list for CCn1c(=O)c2c(nc(/C=C/c3ccc(OC)c(OC)c3)n2C)n(CC)c1=O [KW-6002, 8-[(E)-2-(3,4-dimethoxyphenyl)vinyl]-1,3-diethyl-7-methyl-3,7-dihydro-1H-purine-2,6-dione]?
Answer: cisplatin-induced cell death [1]: reduced cisplatin-induced cell death in a concentration-dependent manner; cisplatin-induced cell death ([1]; listed as KW6002): concentration-dependently reduced cisplatin-induced cell death; cisplatin-induced apoptosis [2]: inhibited cisplatin-induced apoptosis; cisplatin-induced apoptosis ([2]; listed as KW6002): inhibiting cisplatin-induced apoptosis; lipid accumulation induced by cisplatin [3]: significantly reduced; cisplatin-induced accumulation of lipid droplets in kidney [4]: significantly reduced; accumulation of cisplatin (platinum) in cells [5]: limits the accumulation of cisplatin; DNA damage: yH2AX nuclear foci [6]: increased number of H2AX+ cells; efflux [7]: significantly reduced
